# Test results reported in patent US8031338B2, “Measuring Forster resonance energy transfer with polarized and depolarized light” (Vanderbilt University, priority 2004, dated 2011).
# Legend:
# [1] = tested on: COS-7 cells expressing SCAT3.1 (caspase-3 cleavage site); settings: COS-7 cells expressing SCAT3.1, 96-well plate; 10 μM H2O2 for 90 min; FIG. 6D
# [2] = tested on: COS-7 cells expressing SCAT3.1 (caspase-3 cleavage site); test: A-FRET microscopy of SCAT 3.1 apoptosis sensor cleavage in live cells; type: cell-based; settings: COS-7 cells transfected with SCAT 3.1; imaged immediately after treatment and after 5 hours; FIG. 6A-C
# Procedure: Sample Preparation. Beads from a 5 ml HiTRAP chelating HP column (Amersham Biosciences) were charged using a 0.1M NiSO (Rizzo and Piston, 2005) solution and washed with 50 mM TrisHCl. The beads were then labeled as described (Youvan et al., 1997) with purified mCerulean, mVenus, or a linker protein containing mVenus and mCerulean separated by the linker sequence […]. Histadine-tagged recombinant protein was bacterially expressed and purified as previously described (Rizzo et al., 2004). For living cell studies, plasmid DNA encoding FP constructs were introduced was into COS-7 cells using FUGENE (Roche) transfection reagent according to the manufacturer's instructions. […]
# Fluorescence Imaging. […] Fluorescence emission was filtered through a 515-540 nm bandpass filter and 2 mm BGG22 glass prior to separation vertical and horizontal polarizations with a broadband polarizing cube beam splitter (Newport). […]
# To test the ability of this approach to measure FRET changes in a live cell based assay, COS-7 cells were transfected with the apoptosis sensor, SCAT 3.1 (Nagai and Miyawaki, 2004), which consists of cyan and yellow FPs separated by a caspase-3 cleavage site (FIG. 6A). […] SCAT 3.1 cleavage was also monitored in cells grown on a 96-well plate. […] The use of an intrinsic parameter, such as anisotropy, enables absolute threshold values to be determined for occurrence of FRET during an assay. […]
SMILES,"overall anisotropy in the yellow emission channel, indicating caspase-3 activation [1]",emission in the yellow FP channel (polarization) following induction of apoptosis [2]
OO [hydrogen peroxide],increase in the overall anisotropy,
CN[C@@H]1C[C@H]2O[C@@](C)([C@@H]1OC)n1c3ccccc3c3c4c(c5c6ccccc6n2c5c31)C(=O)NC4 [staurosporine],,changes from highly depolarized fluorescence to highly polarized fluorescence
